Columns and labels:
[1] = target: human PI3Kbeta p110 catalytic subunit (Rat-1 cells) (Homo sapiens (Human), UniProt P42338); assay: Cellular assay PI3Kbeta, p-Akt(S473) SureFire in Rat-1_PI3Kbeta cells; type: cell-based; settings: p-AKT(Ser473), 1 h treatment; read-out: Rat1-PI3Kb/IC50
Description: (§1) AlphaScreen (Amplified Luminescent Proximity Homogeneous Assay, ALPHA, Perkin Elmer) is a non-radioactive bead-based proximity assay technology to study biomolecular interactions in a homogenous microtiter plate format. The brand name SureFire denotes AlphaScreen assays that are adapted to quantify the phosphorylation of endogenous cellular proteins in cell lysates, by using matched antibody pairs, which consist of an anti-phospho-kinase and an anti-kinase antibody. The assay allows characterization of kinase signaling in cells as well as measurement of kinase inhibitor effects. The AlphaScreen technology provides several advantages over standard assay techniques such as ELISA, as it avoids time-consuming washing procedures and reduces plate handling. Furthermore, it is miniaturizable at least to a 384-well format and provides sensitivity down to the femtomolar range, dependent on the affinity of the antibodies included in the individual AlphaScreen SureFire assay kit. High sensitivity is reached by an intrinsic amplification mechanism, which involves production of singlet oxygen molecules. SureFire assay kits are commercially available for specific targets and include pairs of validated antibodies (PerkinElmer). This report describes common procedures applied for AlphaScreen SureFire assays and respective semi-automated steps for routine kinase inhibitor profiling in cell-based assays.
The Rat-1 cell lines stably overexpressing activated PI3K class I isoforms Rat-1 pBABEpuro Myr-HA-hp110 delta (Rat-1_PI3Kdelta) and Rat-1 pBABEpuro Myr-HA-hp110alpha (Rat-1_PI3Kalpha) and Rat-1 pBABEpuro Myr-HA-hp110 beta (Rat-1_PI3beta) were prepared as described (Maira S M, Stauffer F, Brueggen J, Furet P, Schnell C, Fritsch C, Brachmann S, Chène P, de Pover A, Schoemaker K, Fabbro D, Gabriel D, Simonen M, Murphy L, Finan P, Sellers W, Garcia-Echeverria C (2008), Mol Cancer Ther. 7:1851-63 and Maira S M, Pecchi S, Brueggen J, Huh K, Schnell C, Fritsch C, Nagel T, Wiesmann M, Brachmann S, Dorsch M, Chène P, Schoemaker K, De Pover A, Menezes D, Fabbro D, Sellers W, Garcia-Echeverria C, Voliva CF (2011), Mol. Cancer Ther., accepted). All cell lines were cultivated in complete growth medium (DMEM high glucose, 10% (v/v) fetal bovine serum, 1% (v/v) MEM NEAA, 10 mM HEPES, 2 mM L-glutamine, puromycin (10 μg/mL for Rat-1_PI3Kdelta and Rat-1_PI3Kalpha, 4 ug/mL for Rat-1_PI3beta), 1% (v/v) Pen/Strep) to 90% confluency at 37° C./5% CO2/90% humidity in a humidified CO2 incubator and were split twice a week. […]

[2] = In vitro skin penetration and permeation, pig skin in Franz-type diffusion cells; type: in vitro ADME; settings: for Permeation rate: pig skin, 48 hours exposure
Protocol: The compound was applied as 0.5% solutions in propylene glycol mixed with either ethanol or oleylalcohol to pig skin mounted in static Franz-type diffusion cells. At the end of a 48 hours exposure time, drug concentrations were measured in the skin (after removal of stratum corneum) and in the receiver. The receiver solution is a mixture of two volume parts of phosphate-buffered saline (PBS) and one volume part of fetal calf serum (FCS).

[3] = target: human PI3Kdelta p110 catalytic subunit (Rat-1 cells) (Homo sapiens (Human), UniProt O00329); assay: Cellular assay PI3Kdelta, p-Akt(S473) SureFire in Rat-1_PI3Kdelta cells; type: cell-based; settings: p-AKT(Ser473), 1 h treatment; read-out: Rat1-PI3Kd/IC50
Description: as §1
The Rat-1 cell lines stably overexpressing activated PI3K class I isoforms Rat-1 pBABEpuro Myr-HA-hp110 delta (Rat-1_PI3Kdelta) and Rat-1 pBABEpuro Myr-HA-hp110alpha (Rat-1_PI3Kalpha) and Rat-1 pBABEpuro Myr-HA-hp110 beta (Rat-1_PI3beta) were prepared as described (Maira S M, Stauffer F, Brueggen J, Furet P, Schnell C, Fritsch C, Brachmann S, Chène P, de Pover A, Schoemaker K, Fabbro D, Gabriel D, Simonen M, Murphy L, Finan P, Sellers W, Garcia-Echeverria C (2008), Mol Cancer Ther. 7:1851-63 and Maira S M, Pecchi S, Brueggen J, Huh K, Schnell C, Fritsch C, Nagel T, Wiesmann M, Brachmann S, Dorsch M, Chène P, Schoemaker K, De Pover A, Menezes D, Fabbro D, Sellers W, Garcia-Echeverria C, Voliva CF (2011), Mol. Cancer Ther., accepted). All cell lines were cultivated in complete growth medium (DMEM high glucose, 10% (v/v) fetal bovine serum, 1% (v/v) MEM NEAA, 10 mM HEPES, 2 mM L-glutamine, puromycin (10 μg/mL for Rat-1_PI3Kdelta and Rat-1_PI3Kalpha, 4 ug/mL for Rat-1_PI3beta), 1% (v/v) Pen/Strep) to 90% confluency at 37° C./5% CO2/90% humidity in a humidified CO2 incubator and were split twice a week.
The following materials were used for p-AKT(5473) detection in Rat-1 cell lysates: Dulbecco's modified Eagle's medium (DMEM) high glucose (Gibco Invitrogen, Basel, Switzerland, Cat. No. 41965), Heat Inactivated Fetal Bovine Serum, Qualified (HI FBS; Gibco Invitrogen, Basel, Switzerland, Lot. No. 16140), MEM non essential amino acids (NEAA; Gibco Invitrogen, Basel, Switzerland, Cat. No. 11140), HEPES (Gibco Invitrogen, Basel, Switzerland, Cat. No. 15630), Penicillin/Streptomycin (Pen/Strep, 100x; Gibco Invitrogen, Basel, Switzerland, Cat. No. 15140-122), L-Glutamine (Gibco Invitrogen, Basel, Switzerland, Cat. No. 25030), Puromycin (Sigma Aldrich, Buchs, Switzerland, Cat. No. P9620), DMSO (MERCK, Dietikon, Switzerland, Cat. No. 8.02912.2500), H2O, MilliQ-H2O unless otherwise stated (MILLIPORE QGARDOOR1, Millipore, Zug, Switzerland), Bovine serum albumine (BSA; Sigma Aldrich, Buchs, Switzerland Cat. No. A8412), SureFire p-Akt ½ (Ser473) Assay Kit (PerkinElmer, Schwerzenbach, Switzerland, Cat. No. TGRAS50K).
The p-Akt(5473) SureFire assay measures the phosphorylation of endogenous cellular Akt ½ at Ser473 in cell lysates. Using Rat-1 cells stably expressing myr-HA-tagged versions of the human PI3Kdelta, PI3Kalpha, or PI3Kbeta p110 catalytic subunit isoforms, the assay was developed as a two-plate protocol in a 384-well format.

human PI3Kα = human PI3Kα (Homo sapiens (Human), UniProt P42336); assay: Biochemical assay PI3Kalpha (KinaseGlo luminescence); settings: 1 μM ATP
Description: Cancer Ther. accepted). […] (L-alpha-phosphatidylinositol (PI), Liver, Bovine) were obtained from Avanti Polar Lipid (Cat. […] (Avanti, Cat. No. 840046X) or L-α-phosphatidylinositol (PI) was obtained from Avanti Polar Lipid (Cat. […] Luminescence is a well established readout to determine ATP concentrations and can thus be used to follow the activity of many kinases regardless of their substrate. The Kinase Glo Luminescent Kinase Assay (Promega, Madison/WI, USA) is a homogeneous HTS method of measuring kinase activity by quantifying the amount of ATP remaining in solution following a kinase reaction. 50 nL of compound dilutions were dispensed onto black 384-well low volume Non Binding Styrene (NBS) plates (Costar Cat. No. […] L-α-phosphatidylinositol (PI), provided as 10 mg/ml solution in methanol, was transferred into a glass tube and dried under nitrogen beam. […] NVP-BGT226 was used as a reference compound and included in all assay plates in the form of 16 dilution points in duplicate. […] All fits were performed with the program XLfit4 (ID Business Solutions, Guildford, UK).

[4] = target: human PI3Kalpha p110 catalytic subunit (Rat-1 cells) (Homo sapiens (Human), UniProt P42336); assay: Cellular assay PI3Kalpha, p-Akt(S473) SureFire in Rat-1_PI3Kalpha cells; type: cell-based; settings: p-AKT(Ser473), 1 h treatment
Description: as §1, with “This report describes common procedures applied for AlphaScreen SureFire assays and respective semi-automated steps for routine kinase inhibitor profiling in cell-based assays.” left out

human PI3Kdelta p110 catalytic subunit (Rat-1 cells), sequence (O00329 whole entry): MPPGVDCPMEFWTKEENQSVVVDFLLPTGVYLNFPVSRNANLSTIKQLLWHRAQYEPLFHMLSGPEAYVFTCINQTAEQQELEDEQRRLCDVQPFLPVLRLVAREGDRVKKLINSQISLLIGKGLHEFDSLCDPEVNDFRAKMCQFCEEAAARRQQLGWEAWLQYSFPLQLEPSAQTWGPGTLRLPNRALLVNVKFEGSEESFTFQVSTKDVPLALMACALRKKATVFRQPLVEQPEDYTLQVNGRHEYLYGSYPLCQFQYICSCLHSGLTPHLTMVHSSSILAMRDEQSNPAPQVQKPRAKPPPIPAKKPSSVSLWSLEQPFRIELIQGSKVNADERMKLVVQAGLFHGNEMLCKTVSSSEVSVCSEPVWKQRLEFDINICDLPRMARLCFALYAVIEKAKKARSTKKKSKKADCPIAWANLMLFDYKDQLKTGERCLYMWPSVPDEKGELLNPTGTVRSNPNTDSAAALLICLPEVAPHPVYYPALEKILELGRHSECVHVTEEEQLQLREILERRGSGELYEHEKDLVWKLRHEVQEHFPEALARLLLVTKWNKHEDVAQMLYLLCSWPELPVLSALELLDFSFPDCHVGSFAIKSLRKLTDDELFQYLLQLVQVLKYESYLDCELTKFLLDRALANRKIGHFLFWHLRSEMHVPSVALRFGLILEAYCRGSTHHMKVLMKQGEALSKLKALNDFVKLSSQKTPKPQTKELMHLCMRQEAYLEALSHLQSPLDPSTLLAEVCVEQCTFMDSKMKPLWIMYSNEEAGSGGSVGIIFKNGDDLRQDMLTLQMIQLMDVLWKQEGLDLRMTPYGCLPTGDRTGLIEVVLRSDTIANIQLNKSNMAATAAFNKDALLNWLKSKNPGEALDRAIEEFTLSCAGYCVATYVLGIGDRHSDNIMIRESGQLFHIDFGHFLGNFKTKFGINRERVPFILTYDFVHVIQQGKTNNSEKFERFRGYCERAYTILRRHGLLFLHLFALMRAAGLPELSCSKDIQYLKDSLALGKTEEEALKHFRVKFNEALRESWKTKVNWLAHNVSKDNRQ
human PI3Kdelta p110 catalytic subunit (Rat-1 cells), sequence (Q63787 whole entry partner): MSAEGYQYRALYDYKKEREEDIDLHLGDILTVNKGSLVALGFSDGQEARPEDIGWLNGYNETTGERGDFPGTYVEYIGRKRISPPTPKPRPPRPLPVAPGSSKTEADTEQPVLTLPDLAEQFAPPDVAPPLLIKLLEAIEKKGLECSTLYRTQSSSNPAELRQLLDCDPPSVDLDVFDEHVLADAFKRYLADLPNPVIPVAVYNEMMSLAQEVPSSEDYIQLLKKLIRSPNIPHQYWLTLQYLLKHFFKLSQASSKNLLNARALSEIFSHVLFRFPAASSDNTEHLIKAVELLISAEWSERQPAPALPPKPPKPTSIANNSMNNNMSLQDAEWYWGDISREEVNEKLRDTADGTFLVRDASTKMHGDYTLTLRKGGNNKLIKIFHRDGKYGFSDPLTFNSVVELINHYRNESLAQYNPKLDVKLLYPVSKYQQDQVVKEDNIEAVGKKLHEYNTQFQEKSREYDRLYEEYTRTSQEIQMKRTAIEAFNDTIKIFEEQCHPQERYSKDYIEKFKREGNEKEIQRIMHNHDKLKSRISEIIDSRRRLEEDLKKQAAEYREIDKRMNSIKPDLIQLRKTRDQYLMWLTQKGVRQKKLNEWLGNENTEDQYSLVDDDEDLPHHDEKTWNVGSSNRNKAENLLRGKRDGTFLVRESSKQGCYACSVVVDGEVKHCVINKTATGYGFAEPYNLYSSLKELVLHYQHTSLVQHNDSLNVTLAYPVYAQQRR
human PI3Kbeta p110 catalytic subunit (Rat-1 cells), sequence (P42338 whole entry): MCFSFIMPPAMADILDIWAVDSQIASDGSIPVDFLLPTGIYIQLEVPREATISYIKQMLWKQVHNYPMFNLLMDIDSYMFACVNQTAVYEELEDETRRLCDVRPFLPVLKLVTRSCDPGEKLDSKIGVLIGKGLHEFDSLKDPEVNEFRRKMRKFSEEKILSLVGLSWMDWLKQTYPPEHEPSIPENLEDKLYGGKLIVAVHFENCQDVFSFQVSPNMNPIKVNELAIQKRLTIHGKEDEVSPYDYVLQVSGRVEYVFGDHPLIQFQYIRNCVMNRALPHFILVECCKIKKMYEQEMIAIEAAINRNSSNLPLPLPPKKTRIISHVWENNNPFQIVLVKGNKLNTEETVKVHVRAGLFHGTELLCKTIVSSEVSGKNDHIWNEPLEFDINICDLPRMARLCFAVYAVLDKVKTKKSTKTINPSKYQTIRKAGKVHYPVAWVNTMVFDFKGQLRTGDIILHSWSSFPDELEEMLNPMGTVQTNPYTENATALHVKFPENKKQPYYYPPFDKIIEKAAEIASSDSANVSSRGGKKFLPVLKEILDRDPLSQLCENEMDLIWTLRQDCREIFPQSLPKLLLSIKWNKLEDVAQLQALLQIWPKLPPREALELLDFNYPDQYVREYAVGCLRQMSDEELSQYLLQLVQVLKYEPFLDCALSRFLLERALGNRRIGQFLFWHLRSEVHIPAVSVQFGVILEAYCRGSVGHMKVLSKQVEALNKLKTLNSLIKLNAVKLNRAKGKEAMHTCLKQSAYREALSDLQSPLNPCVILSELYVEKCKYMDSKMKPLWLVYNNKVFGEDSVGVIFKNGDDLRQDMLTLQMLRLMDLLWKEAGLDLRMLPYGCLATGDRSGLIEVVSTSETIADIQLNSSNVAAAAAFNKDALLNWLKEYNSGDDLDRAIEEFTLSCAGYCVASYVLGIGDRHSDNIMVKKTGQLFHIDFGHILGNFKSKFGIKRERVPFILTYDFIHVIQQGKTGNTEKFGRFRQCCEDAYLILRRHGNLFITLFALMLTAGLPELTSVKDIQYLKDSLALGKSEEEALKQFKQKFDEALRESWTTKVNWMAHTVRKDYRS
human PI3Kbeta p110 catalytic subunit (Rat-1 cells), sequence (Q63787 whole entry partner): as the sequence (Q63787 whole entry partner) above
human PI3Kalpha p110 catalytic subunit (Rat-1 cells), sequence (P42336 whole entry): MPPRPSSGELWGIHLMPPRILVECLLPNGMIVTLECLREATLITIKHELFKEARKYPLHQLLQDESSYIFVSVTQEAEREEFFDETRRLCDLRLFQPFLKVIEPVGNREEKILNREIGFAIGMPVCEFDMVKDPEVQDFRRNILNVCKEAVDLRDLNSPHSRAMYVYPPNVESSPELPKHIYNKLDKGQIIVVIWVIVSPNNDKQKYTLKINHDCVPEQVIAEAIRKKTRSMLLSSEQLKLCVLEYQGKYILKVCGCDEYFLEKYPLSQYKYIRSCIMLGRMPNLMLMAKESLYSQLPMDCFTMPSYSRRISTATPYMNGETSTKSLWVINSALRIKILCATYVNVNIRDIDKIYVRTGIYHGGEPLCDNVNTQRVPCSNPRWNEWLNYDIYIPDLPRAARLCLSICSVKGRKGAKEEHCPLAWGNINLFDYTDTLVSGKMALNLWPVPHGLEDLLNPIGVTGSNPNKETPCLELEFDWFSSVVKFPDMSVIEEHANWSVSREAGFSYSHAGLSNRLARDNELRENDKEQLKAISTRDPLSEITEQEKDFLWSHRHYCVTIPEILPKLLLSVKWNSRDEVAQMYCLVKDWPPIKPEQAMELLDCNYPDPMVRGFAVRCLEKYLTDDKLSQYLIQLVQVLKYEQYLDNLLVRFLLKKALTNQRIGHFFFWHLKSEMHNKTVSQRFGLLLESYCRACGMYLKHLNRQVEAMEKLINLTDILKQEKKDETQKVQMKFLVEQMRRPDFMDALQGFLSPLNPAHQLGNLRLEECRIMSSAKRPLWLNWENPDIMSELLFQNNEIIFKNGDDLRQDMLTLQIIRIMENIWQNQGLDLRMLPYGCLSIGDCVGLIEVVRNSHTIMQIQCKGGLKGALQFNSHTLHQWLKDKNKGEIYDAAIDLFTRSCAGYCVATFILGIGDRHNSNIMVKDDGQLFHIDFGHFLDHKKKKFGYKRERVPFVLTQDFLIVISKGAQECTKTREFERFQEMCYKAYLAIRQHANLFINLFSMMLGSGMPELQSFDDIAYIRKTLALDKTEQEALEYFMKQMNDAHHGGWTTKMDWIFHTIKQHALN
human PI3Kalpha p110 catalytic subunit (Rat-1 cells), sequence (Q63787 whole entry partner): as the sequence (Q63787 whole entry partner) above
human PI3Kα, sequence (P42336 21-1068): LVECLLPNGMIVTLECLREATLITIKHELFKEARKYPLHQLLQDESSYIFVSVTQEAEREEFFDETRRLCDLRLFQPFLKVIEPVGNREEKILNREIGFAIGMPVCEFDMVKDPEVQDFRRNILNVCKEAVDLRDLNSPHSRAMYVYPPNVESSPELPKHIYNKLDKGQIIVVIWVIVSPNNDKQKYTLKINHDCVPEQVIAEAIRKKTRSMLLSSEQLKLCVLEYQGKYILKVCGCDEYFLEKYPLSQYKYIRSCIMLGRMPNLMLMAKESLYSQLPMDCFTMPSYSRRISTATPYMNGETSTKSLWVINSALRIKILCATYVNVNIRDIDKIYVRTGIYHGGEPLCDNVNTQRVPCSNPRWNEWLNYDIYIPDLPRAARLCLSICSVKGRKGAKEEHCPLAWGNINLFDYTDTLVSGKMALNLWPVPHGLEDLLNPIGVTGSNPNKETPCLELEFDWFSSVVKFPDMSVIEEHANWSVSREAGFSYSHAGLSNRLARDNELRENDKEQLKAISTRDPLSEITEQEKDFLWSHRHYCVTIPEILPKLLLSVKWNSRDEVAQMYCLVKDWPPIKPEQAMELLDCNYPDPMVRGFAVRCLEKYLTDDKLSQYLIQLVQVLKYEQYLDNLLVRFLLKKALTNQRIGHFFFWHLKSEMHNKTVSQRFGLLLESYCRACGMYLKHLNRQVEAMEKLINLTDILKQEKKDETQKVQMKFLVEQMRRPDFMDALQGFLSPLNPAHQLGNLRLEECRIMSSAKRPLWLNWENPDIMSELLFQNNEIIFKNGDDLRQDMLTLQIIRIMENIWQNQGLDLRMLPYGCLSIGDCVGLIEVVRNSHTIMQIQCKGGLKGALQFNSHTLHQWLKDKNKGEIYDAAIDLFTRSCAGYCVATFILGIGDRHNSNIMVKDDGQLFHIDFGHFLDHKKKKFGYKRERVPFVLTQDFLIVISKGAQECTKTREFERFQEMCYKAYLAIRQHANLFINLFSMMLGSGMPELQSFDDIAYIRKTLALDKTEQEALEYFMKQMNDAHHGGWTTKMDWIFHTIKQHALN

Compound	IC50 [1]	IC50 [3]	other results
CC[C@H]1[C@H](c2ccc(OC)cc2)OC(=O)N1c1cc(-c2cnc(N)nc2C(F)(F)F)nc(N2CCOCC2)n1 (relative stereo) [Example 2, (4S*,5S*)-3-(2′-amino-2-morpholino-4′-(trifluoromethyl)-[4,5′-bipyrimidin]-6-yl)-4-ethyl-5-(4-methoxyphenyl)oxazolidin-2-one]	751 nM	–	–
C[C@H]1[C@H](c2nccs2)OC(=O)N1c1cc(-c2cnc(N)nc2C(F)(F)F)nc(N2CCOCC2)n1 [Example 1, (4S,5R)-3-(2′-Amino-2-morpholin-4-yl-4′-trifluoromethyl-[4,5′]bipyrimidinyl-6-yl)-4-methyl-5-thiazol-2-yl-oxazolidin-2-one]	–	–	permeation rate through pig skin (in words) ([2]; pig skin in vitro): low; Permeation rate ([2]; 0.5% in PG + ethanol (7 + 3)): 1.0 ± 0.3 ng/cm^2/hr; Permeation rate ([2]; 0.5% in PG/OA (9 + 1)): 301.1 ± 129.5 ng/cm^2/hr
COc1ccc([C@@H]2OC(=O)N(c3cc(-c4cnc(N)nc4C(F)(F)F)nc(N4CCOCC4)n3)[C@H]2CO)cc1 [Example 3, (4S,5S)-3-(2′-Amino-2-morpholino-4′-(trifluoromethyl)-[4,5′-bipyrimidin]-6-yl)-4-(hydroxymethyl)-5-(4-methoxyphenyl)oxazolidin-2-one]	33 nM	6 nM	–
C[C@H]1[C@H](c2ccccc2)OC(=O)N1c1cc(-c2cnc(N)nc2C(F)(F)F)nc(N2CCOCC2)n1 [Example 5]	–	119 nM	–
CC[C@H]1[C@H](c2nccs2)OC(=O)N1c1cc(-c2cnc(N)nc2C(F)(F)F)nc(N2CCOCC2)n1 [Example 7]	–	123 nM	–
CCC1C(c2cccnc2)OC(=O)N1c1cc(-c2cnc(N)nc2C(F)(F)F)nc(N2CCOCC2)n1 (stereo not shown) [Example 8]	26 nM	–	–
CC1C(c2cccnc2)OC(=O)N1c1cc(-c2cnc(N)nc2C(F)(F)F)nc(N2CCOCC2)n1 (stereo not shown) [Example 9]	–	11 nM	–
Nc1ncc(-c2cc(N3C(=O)O[C@@H](c4ccccc4)[C@@H]3CO)nc(N3CCOCC3)n2)c(C(F)(F)F)n1 [Example 10]	23 nM	22 nM	PI3Ka/IC50 (human PI3Kα): 0.009 umol I-1; Rat1-PI3Ka/IC50 [4]: 0.085 umol I-1
C[C@H]1[C@@H](c2nccs2)OC(=O)N1c1cc(-c2cnc(N)nc2C(F)(F)F)nc(N2CCOCC2)n1 [Example 11]	26 nM	–	–
COCCOc1ccc([C@@H]2OC(=O)N(c3cc(-c4cnc(N)nc4C(F)(F)F)nc(N4CCOCC4)n3)[C@H]2CO)cc1 [Example 12]	–	4 nM	–

Reference: patent US10202371B2, “Oxazolidin-2-one-pyrimidine derivatives and the use thereof as phosphatidylinositol-3-kinase inhibitors” (Novartis AG, priority 2012, dated 2019)
